Species on record: Rattus norvegicus
Assay: Binding of [3H]diprenorphine to rat brain membranes was evaluated and the dissociation constant (KD) was determined.
Design: species or system Membrane

Question: With `C=CCN1CC[C@]23c4c5ccc(O)c4O[C@H]2C(=O)CC[C@@]3(O)[C@H]1C5` [NALOXONE] as the molecule, how does the Kd read?
Answer: 10 nM
